The target of one test is Sodium Channel. As to the kind of experiment: Receptor binding, Sodium Channel. Also noted: key to Relative Affinity: ≧ indicates greater or equal affinity; = indicates about the same affinity; − indicates no affinity. As to the method: (§1) Receptor-ligand binding studies were performed as known to one skilled in the art. Compounds evaluated were LMP, the parent compound, the NDM LMP metabolite of LMP, and the sulfoxide metabolite of LMP. These studies verified receptor binding and affinity by the parent compound, as well as identified other potential receptors for the parent compound and its metabolites, and identified and verified receptors and receptor affinity for the metabolites.
(§2) Dopamine receptor affinity included binding to D1, D2, D3, D4, and D5 receptors. Serotonin receptor affinity included binding to 5-HT1A, 5-HT2A, 5-HT2B, 5-HT2, 5-HT5A, 5-HT6, and 5-HT7 receptors. Alpha adrenergic receptor affinity included binding to α1A, α1B, α1C, α2A, α2B, and α2C receptors. Muscarinic receptor affinity included binding to M1, M2, M3, M4, and M5 receptors. Binding to the histamine H1 receptor, the calcium ion channel receptor, and the sodium ion channel receptor were also evaluated. In each of the tables, the following abbreviations are used: LMP indicates the parent compound levomepromazine. NDM LMP indicates the N-desmethyl (N-desmethyl) metabolite. Sulfoxide indicates the sulfoxide metabolite. […] Ki (the inhibition constants of binding) indicate binding affinity.

Another test deals with T1, Muscarinic M5 (Homo sapiens, UniProt P08912).
T1 sequence (P08912 1-532): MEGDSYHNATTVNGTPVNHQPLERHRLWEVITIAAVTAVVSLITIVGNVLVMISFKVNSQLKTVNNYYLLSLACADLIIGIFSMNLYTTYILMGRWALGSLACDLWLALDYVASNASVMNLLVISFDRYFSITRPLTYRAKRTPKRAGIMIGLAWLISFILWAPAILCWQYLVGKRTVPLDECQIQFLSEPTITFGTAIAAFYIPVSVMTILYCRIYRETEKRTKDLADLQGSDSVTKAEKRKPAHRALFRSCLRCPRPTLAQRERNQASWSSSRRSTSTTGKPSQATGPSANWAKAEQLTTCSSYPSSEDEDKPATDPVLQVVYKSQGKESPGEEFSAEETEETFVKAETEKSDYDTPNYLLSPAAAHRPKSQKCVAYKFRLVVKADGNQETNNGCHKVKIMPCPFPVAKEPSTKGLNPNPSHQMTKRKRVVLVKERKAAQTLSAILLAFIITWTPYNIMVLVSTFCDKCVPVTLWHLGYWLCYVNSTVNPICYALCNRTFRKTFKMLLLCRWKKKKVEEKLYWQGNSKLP
As to the kind of experiment: Receptor binding, Muscarinic M5. As to the method:
as §1, §2

Another test concerns the target Dopamine D2 (Homo sapiens, UniProt P14416). As to the kind of experiment: Receptor binding, Dopamine D2. As to the method: as §1, §2
For the next test, the target named is Serotonin 5-HT6 (Homo sapiens, UniProt P50406). The experiment in a line: Receptor binding, Serotonin 5-HT6. How it is done:
as §1, §2

The next test has as its target T2, Adrenergic α2B (Homo sapiens, UniProt P18089).
T2 sequence (P18089 1-450): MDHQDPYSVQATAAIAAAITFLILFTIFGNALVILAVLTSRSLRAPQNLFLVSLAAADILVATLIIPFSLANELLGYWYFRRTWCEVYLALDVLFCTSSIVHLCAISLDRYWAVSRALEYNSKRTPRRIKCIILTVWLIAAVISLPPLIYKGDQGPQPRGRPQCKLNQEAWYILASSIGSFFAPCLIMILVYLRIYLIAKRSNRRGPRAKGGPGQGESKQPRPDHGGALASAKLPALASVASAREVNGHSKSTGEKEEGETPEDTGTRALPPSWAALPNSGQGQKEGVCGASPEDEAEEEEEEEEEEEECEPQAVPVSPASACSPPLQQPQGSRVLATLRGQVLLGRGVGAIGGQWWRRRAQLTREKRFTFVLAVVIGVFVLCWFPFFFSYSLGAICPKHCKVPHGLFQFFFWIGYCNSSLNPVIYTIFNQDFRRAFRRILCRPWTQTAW
The experiment in a line: Receptor binding, Adrenergic α2B. As to the method:
as §1, §2

A further test concerns the target T3, Muscarinic M4 (Homo sapiens, UniProt P08173).
T3 sequence (P08173 1-479): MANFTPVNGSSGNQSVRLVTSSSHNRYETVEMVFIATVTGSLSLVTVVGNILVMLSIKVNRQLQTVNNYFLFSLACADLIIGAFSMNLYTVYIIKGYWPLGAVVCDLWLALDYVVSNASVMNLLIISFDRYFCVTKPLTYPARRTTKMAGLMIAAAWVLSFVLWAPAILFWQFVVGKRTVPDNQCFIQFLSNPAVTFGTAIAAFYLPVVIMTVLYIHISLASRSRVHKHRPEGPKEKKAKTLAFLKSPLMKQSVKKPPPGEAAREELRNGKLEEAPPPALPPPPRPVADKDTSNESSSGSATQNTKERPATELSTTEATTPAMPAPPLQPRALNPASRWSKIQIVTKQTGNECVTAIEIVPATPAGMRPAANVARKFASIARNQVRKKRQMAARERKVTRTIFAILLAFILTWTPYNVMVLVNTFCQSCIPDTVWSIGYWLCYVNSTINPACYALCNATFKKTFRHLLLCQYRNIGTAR
The experiment in a line: Receptor binding, Muscarinic M4. As to the method: as §1, §2

A further test deals with Dopamine D5 (Homo sapiens, UniProt P21918). The experiment in a line: Receptor binding, Dopamine D5. How it is done:
as §1, §2

The target of the next test is T4, Dopamine D4.2 (Homo sapiens, UniProt P21917, DEL271-302).
T4 sequence (P21917 with tags, fused parts or gaps DEL271-302): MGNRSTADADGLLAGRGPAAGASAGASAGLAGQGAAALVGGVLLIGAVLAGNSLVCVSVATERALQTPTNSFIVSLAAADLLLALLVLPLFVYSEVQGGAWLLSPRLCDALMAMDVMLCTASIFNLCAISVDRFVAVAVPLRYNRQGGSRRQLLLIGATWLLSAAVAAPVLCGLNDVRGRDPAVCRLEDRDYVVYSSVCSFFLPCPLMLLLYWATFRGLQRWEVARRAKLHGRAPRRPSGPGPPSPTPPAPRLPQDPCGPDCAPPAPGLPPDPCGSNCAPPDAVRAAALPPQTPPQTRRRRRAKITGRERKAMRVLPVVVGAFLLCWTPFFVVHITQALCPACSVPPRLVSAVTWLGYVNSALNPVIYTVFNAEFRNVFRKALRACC
As to the kind of experiment: Receptor binding, Dopamine D4.2. As to the method:
as §1, §2

Structures are written as SMILES. Read-outs that look alike come from different tables or passages of the source.

Sequence of Dopamine D5 (P21918 whole entry): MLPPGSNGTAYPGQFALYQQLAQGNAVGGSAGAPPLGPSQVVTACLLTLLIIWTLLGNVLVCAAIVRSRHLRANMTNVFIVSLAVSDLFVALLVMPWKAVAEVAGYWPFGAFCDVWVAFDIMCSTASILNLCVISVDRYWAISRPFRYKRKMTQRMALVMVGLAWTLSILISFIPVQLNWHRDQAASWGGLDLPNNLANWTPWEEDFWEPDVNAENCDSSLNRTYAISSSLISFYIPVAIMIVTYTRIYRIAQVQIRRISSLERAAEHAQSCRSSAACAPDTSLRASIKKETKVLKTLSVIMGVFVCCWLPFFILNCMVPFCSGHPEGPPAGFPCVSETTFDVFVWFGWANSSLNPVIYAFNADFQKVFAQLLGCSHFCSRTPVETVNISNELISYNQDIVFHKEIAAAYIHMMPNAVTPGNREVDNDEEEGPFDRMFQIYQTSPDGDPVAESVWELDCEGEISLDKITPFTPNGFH
Sequence of Dopamine D2 (P14416 whole entry): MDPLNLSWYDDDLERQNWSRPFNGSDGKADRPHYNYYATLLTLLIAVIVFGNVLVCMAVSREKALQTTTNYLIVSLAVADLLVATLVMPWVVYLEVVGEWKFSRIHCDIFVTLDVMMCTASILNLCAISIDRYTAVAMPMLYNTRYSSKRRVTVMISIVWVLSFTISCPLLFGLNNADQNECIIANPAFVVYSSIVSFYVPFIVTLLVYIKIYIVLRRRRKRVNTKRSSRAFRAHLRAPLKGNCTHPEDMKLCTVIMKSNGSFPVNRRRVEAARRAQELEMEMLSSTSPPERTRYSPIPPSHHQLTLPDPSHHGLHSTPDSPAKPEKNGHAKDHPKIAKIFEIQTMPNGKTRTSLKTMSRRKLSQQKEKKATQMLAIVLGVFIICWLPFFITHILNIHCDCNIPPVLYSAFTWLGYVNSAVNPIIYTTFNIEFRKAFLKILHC
Sequence of Serotonin 5-HT6 (P50406 whole entry): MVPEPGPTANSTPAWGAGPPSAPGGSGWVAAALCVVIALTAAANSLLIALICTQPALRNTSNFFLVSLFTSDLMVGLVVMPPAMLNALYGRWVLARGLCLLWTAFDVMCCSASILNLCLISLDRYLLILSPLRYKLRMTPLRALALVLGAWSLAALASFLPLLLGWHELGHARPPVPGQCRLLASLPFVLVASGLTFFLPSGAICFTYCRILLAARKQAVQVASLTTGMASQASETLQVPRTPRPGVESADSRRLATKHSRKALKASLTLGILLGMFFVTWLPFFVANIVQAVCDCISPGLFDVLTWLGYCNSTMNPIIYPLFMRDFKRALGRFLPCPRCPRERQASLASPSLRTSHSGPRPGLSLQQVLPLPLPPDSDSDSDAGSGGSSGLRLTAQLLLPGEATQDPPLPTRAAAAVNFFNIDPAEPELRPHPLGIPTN

For the molecule `COc1ccc2c(c1)N(C[C@H](C)CN(C)C)c1ccccc1[S+]2[O-]` (stereo partly drawn) [Sulfoxide, levomepromazine sulfoxide], the Ki (in general, the equilibrium dissociation constant of an inhibitor or competing ligand from its target) on Sodium Channel was “no affinity was detected”; at Sodium Channel (read-out: Ki), above 10000 nM; at Muscarinic M5, 481 nM; at Dopamine D2 it was above 10000 nM; on Serotonin 5-HT6, above 10000 nM; at Adrenergic α2B, above 10000 nM. The Ki on Muscarinic M4 was 318 nM; on Dopamine D5, above 10000 nM; at Dopamine D4.2 it was above 10 µM. Further, in the test on Sodium Channel, the “Relative Affinity” value is listed as “−”.
As to `COc1ccc2c(c1)N(C[C@H](C)CN(C)C)c1ccccc1S2` [LMP, Levomepromazine], the Ki turned out to be 1090 nM on Sodium Channel (read-out: Ki); 61 nM at Muscarinic M5; 8 nM on Dopamine D2; 82 nM at Serotonin 5-HT6; 25 nM at Adrenergic α2B; 34 nM on Muscarinic M4. The inhibition constant (Ki) at Dopamine D5 stood at 180 nM; on Dopamine D4.2, 0.769 µM.
Turning to `CNCC(C)CN1c2ccccc2Sc2ccc(OC)cc21` (stereo not drawn) [NDM LMP, R(+) 2-methoxy-10-2-methyl-3-monomethylaminopropyl phenothiazine], in the test on Sodium Channel, the “Relative Affinity” value is recorded as “NDM LMP > LMP”. Also, the Ki was determined as 643 nM on Sodium Channel (read-out: Ki); 60 nM on Muscarinic M5; 17 nM on Dopamine D2; 98 nM at Serotonin 5-HT6; 48 nM at Adrenergic α2B; 88 nM at Muscarinic M4. Further, the Ki was determined as 243 nM at Dopamine D5 and 3.11 µM at Dopamine D4.2.

The values above are taken from patent publication US20050080076A1 (Xanodyne Pharmacal, Inc., priority 2003, published 2005).
